The results in this text go back to US20070015771A1, “Lonidamine analogs” (Threshold pharmaceuticals, Inc., priority 2004, published 2007).

For data set [1], the system named is LNCaP cells. Description: Antiproliferation assay (Alamar Blue), LNCaP cells. The format is cell-based, human. The note with it: 3 day treatment, read-out: GI50 LNCaP cell 3days. The procedure:
(§1) To determine the effect of lonidamine and analogs thereof on cell proliferation, the antiproliferative activity of these compounds was tested in a multi-well Alamar Blue based assay (at 2 h and 3 days). Cell growth in the presence and absence of the test compound (compounds 1-22) was compared, as measured by a fluorescence plate reader at excitation 550 nm and emission 590 nm (see Biosource International Inc., Tech Application Notes, Use of Alamar Blue in the measurement of Cell Viability and Toxicity, Determining IC50). H460 cells (ATCC HTB-177 ([…]), 4,000 cells/well/200 μl) and LNCap cells (ATCC CRL-1740, 6,000 cells/well/200 μl) were seeded in a 96 well plate in RPMI medium (Invitrogen Corporation, Carlsbad, Calif.). After 24 hours, these plates were divided into 3 groups—Control group, 2 h treatment group and 3 day treatment group. In the 2 h treatment group, after 2 h the cells were rinsed to remove the test compound and incubated for 3 days, followed by staining with AlamarBlue. The cells in the 3 day treatment group were incubated for 3 days, followed by staining with AlamarBlue. In the Control group, AlamarBlue was added to the plate at (i) day 0 and (ii) day 3 and measured to establish the control reading.
A general note: Alamar Blue is a resazurin reagent that responds to reducing activity.

Data set [2] has as its system PWR-1E cells. Description: Antiproliferation assay, PWR-1E cells (Example 48). The note with it: read-out: IC50 PWR-1E cell. Format: cell-based. As for the experimental part:
as §1
The effect of lonidamine and analogs thereof on cell proliferation in PWR-1E cells (ATCC CRL-11611) was determined in an antiproliferative assay using PWR-1E cells (5000 cells/well) in Keratinocyte SFM medium (Gibco Products, Invitrogen Corporation, Carlsbad, Calif.) according to the procedure detailed in Example 47 above.

In data set [3] the test system is PNt2 cells. Description: Antiproliferation assay 3 days, PNt2 cells. The note with it: 3 day treatment; read-out: PNT2c cell line IC50. Format: cell-based. The procedure:
To determine the effect of lonidamine analogs thereof on cell proliferation, the antiproliferative activity of these compounds was tested in a multi-well Alamar Blue based assay (at 3 days). Cell growth in the presence and absence of the test compound was compared, as measured by a fluoresence plate reader at excitation 550 nm and emission 590 nm (see Biosource International Inc., Tech Application Notes, Use of Alamar Blue in the measurement of Cell Viability and Toxity, Determining IC50). The following cell lines were tested: PWR-1E cells ((ATCC CRL-11611), 3500 cells/well/200 μl in Keratinocyte SFM medium (Gibco Products, Invitrogen Corporation, Carlsbad, Calif.)); DU-145 cells ((ATCC HTB-81), 4000 cells/well/200 μl in MEM Eagles medium (ATCC, Manassas, Va.)); PC3 cells ((ATCC CRL-1435), 4000 cells/200 μl in Modified HAM's F12 medium (ATCC, Manassas, Va.)); PNt2 cells ((Sigma-Aldrich, 95012613-1 VL), 4000 cells/well/200 μl in RPMI medium (Gibco Products, Invitrogen Corporation, Carlsbad, Calif.), BPH-1 ((DSMZ ACC-143), 4000 cells/well/200 μl in RPMI medium (Gibco Products, Invitrogen Corporation, Carlsbad, Calif), and NCI-H460 cells ((ATCC HTB-177), 4000 cells/well/200 μl in RPMI medium (Gibco Products, Invitrogen Corporation, Carlsbad, Calif.)). The cells were seeded in a 96 well plate in a medium specified above. After 24 hours, these plates were divided into 2 groups—Control group and 3 day treatment group. A test compound was added to each plate in the treatment groups at concentrations of […] as tabulated in Table 1 (in 2 μl 1 of 100% DMSO, final DMSO concentration 1% in all wells). For NCI-H460 cells, test compounds were added to each plate in the treatment groups at concentrations of 600, 300, 100, 30, 10, 3, and 1 μM (in 2 μl of 100% DMSO, final DMSO concentration 1% in all wells). The cells in the 3 day treatment group were incubated for 3 days, followed by staining with AlamarBlue. In the Control group, AlamarBlue was added to the plate at (i) day 0 and (ii) day 3 and measured to establish the control reading. […] For the NCI-H460 cells, the capacity of the cells to proliferate was measured 5 hours after addition of AlamarBlue using the same fluorescence plate reader as stated above.

Data set [4] concerns CD-1 mice. Description: Tolerance study in CD-1 mice. Format: in vivo, mouse. An excerpt: The toxicological end-points in this study were standard clinical observations such as changes in movement, breathing, food consumption, mortality and decreased body weight.
Data set [5] has as its system testes. Briefly: 5 day systemic administration in male SH rats, testis. Format: in vivo, rat. The note with it: male SH rats, oral daily for 5 days at 50 mg/ml, day 6.

In the case of `O=C(NO)c1nn(Cc2ccc(Cl)cc2Cl)c2ccccc12` [Compound 1], in data set [1], the GI50 was found to be 40 µM. For the same compound, the values for the IC50 in data set [2] and in data set [3] were 4 µM and 17 µM, respectively. Also, the tolerated dose in data set [4] (CD-1 mice, oral dosing for 5 days) is listed as 500 mg/kg/day. Also, in data set [4] (mice, when used for prostate weight reduction), the “therapeutic index compared to lonidamine” value is on record as 10 fold. The Testis shrinkage in data set [5] is listed as −2.5%.

As usually defined, the GI50 is the concentration at which growth is held to half of that of the control. A word on the IC50: it is the concentration needed to halve the response being measured.
